Patent publication US5580860A, “Pharmaceutical composition containing 2-amino-6-chloropurine-9-β-D-2',3'-dideoxyribofuranoxside” (priority 1989, dated 1996)
Blank lines part the entries; values can stand above or below the compound they belong to.

Assays:
[1] = system: AIDS virus (HIV) in ATH8 cells; test: Antivirus test (1), anti-HIV effect in ATH8 cells; format: cell-based; conditions: for IC100: read-out: complete inhibition concentration for HIV
Method: (§1) Namely, after pretreatment beforehand with polybrene (made by Sigma Co.), 2×10^5 ATH 8 cells were exposed to AIDS virus (HIV) for 45 minutes to infect (the number of HIV was made so as to be 2000 per ATH8 cell). Successively, the infected cells were suspended into every 1 ml of respective media containing interleukin 2 (IL-2) and being added with anti-HIV agent in various concentrations and into 1 ml of medium containing IL-2 alone and not containing anti-HIV agent at any rate.
(§2) These were cultured at 37° C. in a mixed gas comprising 5% carbon dioxide and 95% air.
(§3) The cells for reference were similarly prepared except allowing to infect with AIDS virus (HIV).
(§4) After 5 days, whole number of cells was counted by hemocytometer method based on the dyeing with trypan blue.

[2] = system: p24 gag protein of HIV (H9 cells); test: Antivirus test (2), expression of p24 gag protein in HIV-infected H9 cells; format: cell-based
Method: Namely, HIV-infected H9 cells added with anti-HIV agent in various concentrations were cultured for 8 days and 9 days, respectively, to assay the rate (%) of the target H9 cells expressing p24 gag protein of HIV. Measurement was made by a murine monoclonal antibody (M26) method.

[3] = Cytotoxicity in the anti-HIV test (ATH8 cells); format: cell-based; conditions: human, ath8 cells; DMSO present (1% at 200 μM); attributed to influence of DMSO; read-out: concentration at which cytotoxicity appears
Method: as §1, §2, §3, §4

ATH8 cells = test: Cytotoxicity in the anti-HIV test (ATH8 cells); format: cell-based; conditions: in words
Method: as §1, §2, §3, §4

HIV [4] = conditions: J. Biol. Chem., 263, 5870 (1988); cited from earlier work
cells [5] = conditions: read-out: concentration range from which cytotoxicity appears; J. Biol. Chem., 263, 5870 (1988); cited from earlier work
[6] = Lipophilicity test, partition coefficient by shake-flask method; format: physicochemical; conditions: n-octanol / phosphate buffer pH 7.4, shake-flask, HPLC
Method: As a method for determining the extent of lipophilicity, it is a general rule to measure the partition coefficient (P) in water-n-octanol. Thus, the lipophilicity test of 2-amino-6-chloropurine-9-β-2',3'-dideoxyribofuranoside concerned with the invention was performed by the method of using partition coefficient P by shake-flask method (J. Pharm. Pharmacol., 39, 253 (1987)).
Namely, n-octanol and phosphate buffer (pH 7.4) were transferred into a separatory funnel and shaken for 3 hours with a shaker, which was then allowed to stand for 12 hours to separate respectively. Into 50 ml of n-octanol-saturated buffer thus obtained was dissolved 1 mg of sample (dried for 12 hours at 50° C. in a vacuum dryer) and 0.5 ml of this solution were taken as a sample for quantitative determination. Remaining 49.5 ml of n-octanol-saturated buffer and 49.5 ml of buffer-saturated n-octanol were transferred into a separatory funnel.
After shaking for 3 hours with a shaker, this was allowed to stand for 2 hours and then centrifuged (1500 rpm, 15 minutes). After gently removing the n-octanol layer, the sample for quantitative determination was taken.
The partition coefficient P is defined as follows:
Co: Concentration of sample in buffer before shaking
Cw: Concentration of sample in buffer after shaking

[7] = system: production of reverse transcriptase (HIV); conditions: J. Med. Chem., 32, 1135 (1989), cited from earlier work
cells [8] = conditions: J. Med. Chem., 32, 1135 (1989), cited from earlier work
HIV [9] = conditions: compared with AZT; cited from earlier work
[10] = Human immunodeficiency virus 1, ATH-8, 120 h, ATH8 cells, 5 days

Compound: Nc1nc(Cl)c2ncn([C@H]3CC[C@@H](CO)O3)c2n1 [6-Cl-DDG, 2-amino-6-chloropurine-9-β-D-2',3'-dideoxyribofuranoside]
anti-HIV effect compared with DDG ([1]; ATH8 cells, vs DDG): equal or higher anti-HIV effect compared with DDG
IC100 [1, 10]: 5 µM
minimal effective concentration ([1]; Human immunodeficiency virus 1, ATH-8, 120 h, ATH8 cells, 5 days, read-out: concentration exhibiting HIV inhibition effect): 2 µM
anti-AIDS virus effect (anti-HIV effect) ([1]; in words): high anti-AIDS virus effect (anti-HIV effect)
IC100 ([2]; Human immunodeficiency virus 1, 8th and 9th day, read-out: concentration almost completely inhibiting the expressing of p24): 10 µM
minimal effective concentration ([2]; Human immunodeficiency virus 1, 8th and 9th day, read-out: concentration exhibiting inhibition effect on the expressing of p24 antigen): 3 µM
anti-HIV effect compared with DDG ([2]; vs DDG): equal or higher anti-HIV effect compared with DDG
MCC at 120 h [3]: > 200 µM
cytotoxicity (ATH8 cells): low cytotoxicity

Compound: Nc1nc(F)nc2c1ncn2[C@H]1CC[C@@H](CO)O1 [2-fluoro-2',3'-dideoxyadenosine]
concentration exhibiting HIV inhibition effect (HIV [4]): 1 to 10 µM
MCC (cells [5]): 1 to 10 µM

logD [6]: -1.06
Compound: Nc1nc2c(ncn2[C@H]2CC[C@@H](CO)O2)c(=O)[nH]1 [DDG, 2'3'-dideoxyguanosine]
IC100 [1, 10]: 10 µM

Compound: Nc1nc(Br)nc2c1ncn2[C@H]1CC[C@@H](CO)O1 [2-bromo-2',3'-dideoxyadenosine]
concentration exhibiting HIV inhibition effect (HIV [4]): 1 to 10 µM
MCC (cells [5]): 1 to 10 µM

Compound: Nc1nc(Cl)nc2c1ncn2[C@H]1C=C[C@@H](CO)O1 [2-chloro-2',3'-didehydro-2',3'-dideoxyadenosine]
inhibition of the production of reverse transcriptase at 20 μM ([7]; 20 μM): 75%
toxicity at a concentration over 20 μM (cells [8]; over 20 μM): the toxicity is so strong that the test cannot be performed

Compound: OC[C@@H]1CC[C@H](n2cnc3c(O)ncnc32)O1 [DDI, 2',3'-dideoxyinosine]
logD [6]: -1.22
anti-HIV effect in vitro (HIV [9]): higher anti-HIV effect in vitro than that of AZT

Compound: Nc1ccn([C@H]2CC[C@@H](CO)O2)c(=O)n1 [DDC, 2',3'-dideoxycytidine]
anti-HIV effect in vitro (HIV [9]): higher anti-HIV effect in vitro than that of AZT

Compound: Nc1ncnc2c1ncn2[C@H]1CC[C@@H](CO)O1 [DDA, 2',3'-dideoxyadenosine]
anti-HIV effect in vitro (HIV [9]): higher anti-HIV effect in vitro than that of AZT

Compound: Nc1nc(Cl)nc2c1ncn2[C@H]1CC[C@@H](CO)O1 [2-chloro-2',3'-dideoxyadenosine]
concentration exhibiting HIV inhibition effect (HIV [4]): 1 to 10 µM
anti-HIV effect at 2 μM ([7]; 2 μM): no effect at all
inhibition of the production of reverse transcriptase at 100 μM ([7]; 100 μM): 97%
MCC (cells [5]): 1 to 10 µM
cytotoxicity at 100 μM (cells [8]; 100 μM): 23%
